Measurements from patent US20230382924A1, “MODULATORS OF CYSTIC FIBROSIS TRANSMEMBRANE CONDUCTANCE REGULATOR” (VERTEX PHARMACEUTICALS INCORPORATED, priority 2020, published 2023).

Tests used:
CFTR [1] = molecular target: T1, CFTR (Homo sapiens, UniProt P13569); assay: Membrane Potential Dye, Enteroid Assay A; type: cell-based; details: for EC50: read-out: Ent. A EC50
How it was run: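 Enteroid cells were loaded with methyl oxonol membrane potential dye (plus CaCCinh-A01 and Chicago Sky Blue) for 25 min at room temperature. Chloride transport was started by switching to chloride-free gluconate stimulation solution, with fluorescence read for 15 min. Activity was expressed as % of a triple-combination CFTR modulator control (3 μM, 3 μM, 300 nM acute).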

CFTR [2] = molecular target: T1, CFTR; assay: Membrane Potential Dye, Enteroid Assay B; type: cell-based; details: for EC50: read-out: Ent. B EC50
Experimental: Base medium (ADF+++) consisted of Advanced DMEM/Ham's F12, 2 mM Glutamax, 10 mM HEPES, […] penicillin/streptomycin.
Bath 1 Buffer consisted of 1 mM MgCl2, 160 mM NaCl, 4.5 mM KCl, 10 mM HEPES, 10 mM Glucose, 2 mM CaCl2).
Chloride Free Buffer consisted of 1 mM Magnesium Gluconate, 2 mM Calcium Gluconate, 4.5 mM Potassium Gluconate, 160 mM Sodium Gluconate, 10 mM HEPES, 10 mM Glucose.
Bath 1 Dye Solution consisted of Bath 1 Buffer, 0.04% Pluronic F127, 20 μM Methyl Oxonol, 30 μM CaCCinh-A01, 30 μM Chicago Sky Blue.
Chloride Free Dye Solution consisted of Chloride Free Buffer, 0.04% Pluronic F127, 20 μM Methyl Oxonol, 30 μM CaCCinh-A01, 30 μM Chicago Sky Blue.
3. Enteroid Cell Harvesting and Seeding
Cells were recovered in cell recovery solution, collected by centrifugation at 650 rpm for 5 min at 4° C., resuspended in TryPLE and incubated for 5 min at 37° C. Cells were then collected by centrifugation at 650 rpm for 5 min at 4° C. and resuspended in IEMM containing 10 μM ROCK inhibitor (RI).
5. Membrane Potential Dye, Enteroid Assay B
Briefly, cells were washed 5 times in Bath 1 Buffer. Bath 1 Dye Solution was added and the cells were incubated for 25 min at room temperature. Following dye incubation, cells were washed 3 times in Chloride Free Dye Solution. Chloride transport was initiated by addition of Chloride Free Dye Stimulation Solution and the fluorescence signal was read for 15 min.

T1 sequence (P13569 with tags, fused parts or gaps DEL508-508): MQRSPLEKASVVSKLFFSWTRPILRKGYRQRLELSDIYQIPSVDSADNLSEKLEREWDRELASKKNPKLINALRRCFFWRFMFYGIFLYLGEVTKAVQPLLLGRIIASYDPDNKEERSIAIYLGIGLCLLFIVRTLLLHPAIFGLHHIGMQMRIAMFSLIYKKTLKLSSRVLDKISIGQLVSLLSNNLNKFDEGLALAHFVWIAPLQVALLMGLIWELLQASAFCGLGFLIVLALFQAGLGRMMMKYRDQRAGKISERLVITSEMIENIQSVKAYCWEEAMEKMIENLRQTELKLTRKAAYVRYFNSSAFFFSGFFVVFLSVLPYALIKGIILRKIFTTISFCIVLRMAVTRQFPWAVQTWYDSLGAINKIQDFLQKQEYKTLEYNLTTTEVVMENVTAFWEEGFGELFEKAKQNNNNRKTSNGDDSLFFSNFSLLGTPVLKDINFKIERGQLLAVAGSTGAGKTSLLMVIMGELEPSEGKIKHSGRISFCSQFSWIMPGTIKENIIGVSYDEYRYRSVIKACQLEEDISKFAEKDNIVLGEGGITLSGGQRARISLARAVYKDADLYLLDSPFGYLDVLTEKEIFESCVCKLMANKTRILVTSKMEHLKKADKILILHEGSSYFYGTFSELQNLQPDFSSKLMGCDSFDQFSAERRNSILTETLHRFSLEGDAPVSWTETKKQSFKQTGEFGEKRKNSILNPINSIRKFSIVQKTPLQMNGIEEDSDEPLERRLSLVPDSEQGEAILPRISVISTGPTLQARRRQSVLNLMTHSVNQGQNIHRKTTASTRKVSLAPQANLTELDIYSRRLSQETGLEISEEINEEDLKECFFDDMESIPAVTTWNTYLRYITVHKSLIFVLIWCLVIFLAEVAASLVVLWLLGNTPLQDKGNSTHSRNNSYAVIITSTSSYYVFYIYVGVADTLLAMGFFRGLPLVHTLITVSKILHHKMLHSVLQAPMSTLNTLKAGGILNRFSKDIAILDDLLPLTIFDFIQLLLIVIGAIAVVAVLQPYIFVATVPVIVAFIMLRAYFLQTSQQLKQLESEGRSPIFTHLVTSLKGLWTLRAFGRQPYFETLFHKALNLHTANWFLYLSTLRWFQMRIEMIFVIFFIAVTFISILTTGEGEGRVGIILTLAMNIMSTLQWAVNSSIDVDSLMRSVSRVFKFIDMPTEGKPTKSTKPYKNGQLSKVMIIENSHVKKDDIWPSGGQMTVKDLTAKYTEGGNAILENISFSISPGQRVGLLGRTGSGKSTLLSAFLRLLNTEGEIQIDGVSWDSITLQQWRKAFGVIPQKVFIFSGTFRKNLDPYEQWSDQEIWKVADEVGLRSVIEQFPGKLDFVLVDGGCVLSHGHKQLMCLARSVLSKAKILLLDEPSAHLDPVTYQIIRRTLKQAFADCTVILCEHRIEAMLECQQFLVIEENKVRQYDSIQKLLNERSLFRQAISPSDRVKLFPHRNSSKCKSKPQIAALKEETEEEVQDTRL

## Cc1cccc(C)c1-c1cc2nc(n1)NS(=O)(=O)c1cccc(c1)C(=O)N[C@@H](CC13CC4CC(CC(C4)C1)C3)CO2 (single isomer, unassigned) [Compound 110, 11-(1-adamantylmethyl)-6-(2,6-dimethylphenyl)-2,2-dioxo-9-oxa-2λ^6-thia-3,5,12,19-tetrazatricyclo[12.3.1.14,8]nonadeca-1(18),4(19),5,7,14,16-hexaen-13-one]
CFTR [1]; Table 9
  Ent. A Max Activity: +++ (+++ is >60%)
  EC50: < 1000 nM
CFTR [2]; Table 9
  Ent. B Max Activity: +++ (+++ is >60%)
  EC50: < 1000 nM

## Cc1cccc(C)c1-c1cc2nc(n1)NS(=O)(=O)c1cccc(c1)C(=O)N[C@@H]1CN(c3ncc(C(F)(F)F)cn3)C[C@H]1O2 [Compound 372]
CFTR [1]; Table 9
  Ent. A Max Activity: +++ (+++ is >60%)
  EC50: < 1000 nM
CFTR [2]; Table 9
  Ent. B Max Activity: ++ (++ is 30-60%)
  EC50: < 1000 nM

## Cc1cccc(C)c1-c1cc2nc(n1)NS(=O)(=O)c1cccc(c1)C(=O)N[C@H](C)CO2 [Compound 95, (11R)-6-(2,6-Dimethylphenyl)-11-methyl-9-oxa-2λ^6-thia-3,5,12,19-tetraazatricyclo[12.3.1.14,8]nonadeca-1(17),4,6,8(19),14(18),15-hexaene-2,2,13-trione]
CFTR [1]; Enteroid Assay A
  Ent. A Max Activity: ++ (++ is 30-60%)
CFTR [2]; Enteroid Assay B
  Ent. B Max Activity: ++ (++ is 30-60%)
  EC50: 3000 to 30000 nM

## Cc1cccc(C)c1-c1cc2nc(n1)NS(=O)(=O)c1cccc(c1)C(=O)NCC(CC(C)C)(CC(C)C)CO2 [Compound 496]
CFTR [1]; Table 9
  Ent. A Max Activity: +++ (+++ is >60%)
  EC50: < 1000 nM
CFTR [2]; Table 9
  Ent. B Max Activity: +++ (+++ is >60%)
  EC50: < 1000 nM

## Cc1cccc(C)c1-c1cc2nc(n1)NS(=O)(=O)c1cccc(c1)C(=O)NCC(c1ccc(C3(C(F)(F)F)CC3)cc1)O2 (single isomer, unassigned) [Compound 11, 6-(2,6-Dimethylphenyl)-2,2-dioxo-10-[4-[1-(trifluoromethyl)cyclopropyl]phenyl]-9-oxa-2λ^6-thia-3,5,12,19-tetrazatricyclo[12.3.1.14,8]nonadeca-1(18),4(19),5,7,14,16-hexaen-13-one]
CFTR [1]; Table 8
  Ent. A Max Activity: +++ (+++ is >60%)
  EC50: < 1000 nM
CFTR [2]; Table 8
  Ent. B Max Activity: +++ (+++ is >60%)
  EC50: < 1000 nM

## Cc1cccc(C)c1-c1cc2nc(n1)NS(=O)(=O)c1cccc(c1)C(=O)N[C@@H]1CN(Cc3ccccc3)C[C@H]1O2 [Compound 383]
CFTR [1]; Table 9
  Ent. A Max Activity: +++ (+++ is >60%)
  EC50: < 1000 nM
CFTR [2]; Table 9
  Ent. B Max Activity: +++ (+++ is >60%)
  EC50: < 1000 nM

## Cc1cccc(C)c1-c1cc2nc(n1)NS(=O)(=O)c1cccc(c1)C(=O)N[C@@H]1CN(C3CCC4(CC3)CC4)C[C@H]1O2 [Compound 376]
CFTR [1]; Table 9
  Ent. A Max Activity: +++ (+++ is >60%)
  EC50: < 1000 nM
CFTR [2]; Table 9
  Ent. B Max Activity: ++ (++ is 30-60%)
  EC50: < 1000 nM

## Cc1cccc(C)c1-c1cc2nc(n1)NS(=O)(=O)c1cccc(c1)C(=O)N[C@@H](C(CC(C)C)c1ccccc1)CO2 (stereo in doubt) [Compound 183]
CFTR [1]; Table 9
  Ent. A Max Activity: +++ (+++ is >60%)
  EC50: < 1000 nM
CFTR [2]; Table 9
  Ent. B Max Activity: +++ (+++ is >60%)
  EC50: < 1000 nM

## Cc1cccc(C)c1-c1cc2nc(n1)NS(=O)(=O)c1cccc(c1)C(=O)NC(C)(CC(C)C)CO2 (stereo not drawn) [Compound 177]
CFTR [1]; Table 9
  Ent. A Max Activity: +++ (+++ is >60%)
  EC50: < 1000 nM
CFTR [2]; Table 9
  Ent. B Max Activity: +++ (+++ is >60%)
  EC50: < 1000 nM

## Cc1cccc(C)c1-c1cc2nc(n1)NS(=O)(=O)c1cccc(c1)C(=O)NC[C@H](c1ccc(/C=C/C(C)(C)C)cc1)O2 (stereo in doubt) [Compound 151]
CFTR [1]; Table 9
  Ent. A Max Activity: +++ (+++ is >60%)
  EC50: < 1000 nM
CFTR [2]; Table 9
  Ent. B Max Activity: +++ (+++ is >60%)
  EC50: < 1000 nM

## Cc1cccc(C)c1-c1cc2nc(n1)NS(=O)(=O)c1cccc(c1)C(=O)N[C@@H]1CN(C(C)C)C[C@H]1O2 [Compound 375]
CFTR [1]; Table 9
  Ent. A Max Activity: +++ (+++ is >60%)
  EC50: 3000 to 30000 nM
CFTR [2]; Table 9
  Ent. B Max Activity: ++ (++ is 30-60%)
  EC50: 3000 to 30000 nM

## Cc1cccc(C)c1-c1cc2nc(n1)NS(=O)(=O)c1cccc(c1)C(=O)N[C@@H]1CN(Cc3ccc(C(C)(C)C)cc3)C[C@H]1O2 [Compound 63, (3R,7R)-5-[(4-tert-Butylphenyl)methyl]-19-(2,6-dimethylphenyl)-2-oxa-15λ^6-thia-5,8,16,18,21-pentaazatetracyclo[15.3.1.110,14.03,7]docosa-1(20),10(22),11,13,17(21),18-hexaene-9,15,15-trione]
CFTR [1]; Table 9
  Ent. A Max Activity: +++ (+++ is >60%)
  EC50: < 1000 nM
CFTR [2]; Table 9
  Ent. B Max Activity: +++ (+++ is >60%)
  EC50: < 1000 nM

## Cc1cccc(C)c1-c1cc2nc(n1)NS(=O)(=O)c1cccc(c1)C(=O)N[C@@H]1CN(c3ccc(C(F)(F)F)cn3)C[C@H]1O2 [Compound 62, (3R,7R)-19-(2,6-Dimethylphenyl)-5-[5-(trifluoromethyl)pyridin-2-yl]-2-oxa-15λ^6-thia-5,8,16,18,21-pentaazatetracyclo[15.3.1.110,14.03,7]docosa-1(20),10(22),11,13,17(21),18-hexaene-9,15,15-trione]
CFTR [1]; Table 9
  Ent. A Max Activity: +++ (+++ is >60%)
  EC50: < 1000 nM
CFTR [2]; Table 9
  Ent. B Max Activity: ++ (++ is 30-60%)
  EC50: < 1000 nM

## Cc1cccc(C)c1-c1cc2nc(n1)NS(=O)(=O)c1cccc(c1)C(=O)NC[C@H](c1ccc(/C=C/C(C)(C)C)cc1)O2 (stereo in doubt) [Compound 150]
CFTR [1]; Table 9
  Ent. A Max Activity: ++ (++ is 30-60%)
  EC50: < 1000 nM
CFTR [2]; Table 9
  Ent. B Max Activity: ++ (++ is 30-60%)
  EC50: < 1000 nM

## Cc1ccc(C2CNC(=O)c3cccc(c3)S(=O)(=O)Nc3nc(cc(-c4c(C)cccc4C)n3)O2)cc1 (stereo not drawn) [Compound 405]
CFTR [1]; Table 8
  EC50: < 1000 nM
CFTR [2]; Table 8
  Ent. B Max Activity: ++ (++ is 306%)
  EC50: < 1000 nM

## Cc1cccc(C)c1-c1cc2nc(n1)NS(=O)(=O)c1cccc(c1)C(=O)NC[C@@H](c1ccc(CC(C)(C)C)cc1)O2 [Compound 263]
CFTR [1]; Table 9
  Ent. A Max Activity: +++ (+++ is >60%)
  EC50: < 1000 nM
CFTR [2]; Table 9
  Ent. B Max Activity: ++ (++ is 30-60%)
  EC50: < 1000 nM

## Cc1cccc(C)c1-c1cc2nc(n1)NS(=O)(=O)c1cccc(c1)C(=O)NC[C@H](c1ccc(C(C)(C)C)cc1)O2 (single isomer, unassigned) [Compound 4]
CFTR [1]; Table 8
  Ent. A Max Activity: + (+ is <30%)
  EC50: 3000 to 30000 nM
CFTR [2]; Table 8
  Ent. B Max Activity: + (+ is <30%)

## Cc1cccc(C)c1-c1cc2nc(n1)NS(=O)(=O)c1cccc(c1)C(=O)N[C@H](CC(C)C)[C@@H](c1ccc(C(C)(C)C)cc1)O2 (single isomer, unassigned) [Compound 40]
CFTR [1]; Table 9
  Ent. A Max Activity: +++ (+++ is >60%)
  EC50: < 1000 nM
CFTR [2]; Table 9
  Ent. B Max Activity: +++ (+++ is >60%)

## Cc1cccc(C)c1-c1cc2nc(n1)NS(=O)(=O)c1cccc(c1)C(=O)N[C@@H]1CN(Cc3ccc(C(F)(F)F)cc3)C[C@H]1O2 [Compound 379]
CFTR [1]; Table 9
  Ent. A Max Activity: +++ (+++ is >60%)
  EC50: < 1000 nM
CFTR [2]; Table 9
  Ent. B Max Activity: ++ (++ is 30-60%)
  EC50: < 1000 nM

## Cc1cccc(C)c1-c1cc2nc(n1)NS(=O)(=O)c1cccc(c1)C(=O)NC[C@H](CC(C)C)CO2 (stereo in doubt) [Compound 368]
CFTR [2]; Table 9
  Ent. B Max Activity: ++ (++ is 30-60%)
  EC50: < 1000 nM

## Cc1cccc(CC2CCCCC2)c1-c1cc2nc(n1)NS(=O)(=O)c1cccc(c1)C(=O)N[C@H](CC(C)C)CO2 [Compound 387]
CFTR [2]; Table 9
  Ent. B Max Activity: +++ (+++ is >60%)
  EC50: < 1000 nM

## Cc1cccc(C)c1-c1cc2nc(n1)NS(=O)(=O)c1cccc(c1)C(=O)N[C@H](CC(C)(C)O)CO2 [Compound 65]
CFTR [2]; Table 9
  Ent. B Max Activity: ++ (++ is 30-60%)
  EC50: 3000 to 30000 nM
